Consider 2 compounds from article PMC6943536, “Free and Bound Phenolics of Buckwheat Varieties: HPLC Characterization, Antioxidant Activity, and Inhibitory Potency towards α-Glucosidase with Molecular Docking Analysis” (Antioxidants, 2019).

By IC50 is commonly meant the midpoint of a concentration-inhibition curve.

For this experiment, the target named is T1, α-glucosidase.
T1 construct: gene MAL12; PDB 3A4A isomaltase is only a docking homologue
Briefly: pNPG hydrolysis, absorbance […] nm. The note with it: 5 mM p-NPG stock (100 µL of 250 µL), 0.1 M phosphate buffer pH 6.8, 37 °C, 10 min preincubation. The format is biochemical, Saccharomyces cerevisiae.

≈ marks a conversion by molar mass, not a printed value.

The compound `C[C@@H]1O[C@@H](OC[C@H]2O[C@@H](Oc3c(-c4ccc(O)cc4)oc4cc(O)cc(O)c4c3=O)[C@H](O)[C@@H](O)[C@@H]2O)[C@H](O)[C@H](O)[C@H]1O` [kaempferol-3-O-rutinoside] gave an IC50 of 447.50 ± 17.27 µg/mL (≈ 753 µM). Under `O=C1c2c(O)cc(O)cc2O[C@H](c2cc(O)c(O)c(O)c2)[C@H]1O` [dihydromyricetin] stands 114.45 ± 0.31 µg/mL (≈ 357 µM).
